Results reported in PMC6466477 (Journal of Medicinal Chemistry, 2019).

Assays:
hA3AR [1] = molecular target: T1, hA3AR (Homo sapiens, UniProt P0DMS8); conditions: 25 °C; ref 7 (Xia et al.); cited from earlier work
T1 sequence (P0DMS8 1-318): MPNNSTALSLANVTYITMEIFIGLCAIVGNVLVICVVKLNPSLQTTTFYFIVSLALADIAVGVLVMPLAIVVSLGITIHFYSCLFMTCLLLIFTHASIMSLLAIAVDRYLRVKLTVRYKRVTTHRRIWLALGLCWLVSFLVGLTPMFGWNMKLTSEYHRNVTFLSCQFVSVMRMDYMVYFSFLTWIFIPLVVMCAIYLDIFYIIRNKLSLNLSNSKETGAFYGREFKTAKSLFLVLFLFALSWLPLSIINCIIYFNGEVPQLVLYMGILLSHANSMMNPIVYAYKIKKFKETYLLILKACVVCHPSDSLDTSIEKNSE

hA3AR [2] = molecular target: T1, hA3AR; type: biochemical; conditions: for mode of antagonism: [35S]GTPγS binding assays, overall; for Schild slope, co-incubation: antagonist co-incubated with 2-Cl-IB-MECA for 30 min at 25 °C; for type of antagonism in co-incubation experiment: co-incubated with 2-Cl-IB-MECA; for type of antagonism in preincubation experiment: pretreatment with antagonist before 2-Cl-IB-MECA
hA3AR [3] = molecular target: T1, hA3AR; test: Time-dependent [3H]PSB-11 displacement with or without 4 h preincubation; type: binding; conditions: no preincubation, 0.5 h co-incubation with [3H]PSB-11, 25 °C
hA3AR [4] = molecular target: T1, hA3AR; test: Radioligand competition association assay with [3H]PSB-11; type: binding; conditions: competition association curve, Figure 3

Compound	koff (k2) of radioligand (hA3AR [1]) [min^–1]	kon (k1) of radioligand (hA3AR [1])	mode of antagonism (hA3AR [2])	Schild slope, co-incubation (hA3AR [2])	type of antagonism in co-incubation experiment (hA3AR [2])	type of antagonism in preincubation experiment (hA3AR [2])	hA3AR pKi (pre-0 h) (hA3AR [3])	time to reach equilibrium (hA3AR [4]) [min]	Schild slope, preincubation (hA3AR [2]; antagonist preincubated 60 min at 25 °C before 2-Cl-IB-MECA for 30 min)
CC[C@@H]1CN2C(=O)N(C)c3nc(-c4ccccc4)[nH]c3C2=N1 [[^3H]PSB-11, [^3H]8-Ethyl-4-methyl-2-phenyl-(8R)-4,5,7,8-tetrahydro-1H-imidazo[2,1-i]-purin-5-one]	0.3992 ± 0.02	0.281 ± 0.04 × 10^8 M^–1 min^–1							
CCCn1c(=O)c2c(nc3cc(OC)ccn32)n(CCCNC(=O)c2ccc(S(=O)(=O)F)cc2)c1=O [compound 17b, 4-((3(8-Methoxy-2,4-dioxo-3-propyl-3,4-dihydropyrido[2,1-f]purin-1(2H)yl)propyl)carbamoyl)benzenesulfonyl Fluoride]			competitive insurmountable	1.1 ± 0.1	surmountable antagonism	insurmountable antagonism			
CCCn1c(=O)c2c(nc3cc(OC)ccn32)n(CCCNC(=O)c2ccc(S(C)(=O)=O)cc2)c1=O [compound 19, N-(3-(8-Methoxy-2,4-dioxo-3-propyl-3,4-dihydropyrido[2,1-f]purin-1(2H)-yl)propyl)-4-(methylsulfonyl)benzamide]			competitive surmountable	1.0 ± 0.1	surmountable antagonism	surmountable antagonism	6.2 ± 0.03	≤ 30	1.1 ± 0.1
